“Also recorded” adds a separate entry of the source.
Assays:
ferrets [1] = assay: Apomorphine-induced emesis in ferrets; format: in vivo, ferret
Procedure: (§1) The method used to test antiemetic activity preclinically follows that described by Gardner et al. (Brit. J. Pharmacol., 116: 3158-3163, 1995) and uses ferrets.
(§2) Sixty minutes before administration of the test substance, ferrets are placed in individual stainless steel cages (40×50×34 cm) with a grid floor. Then, the animals are challenged with apomorphine (0.25 mg/kg s.c.), morphine (0.4 mg/kg i.p.) or cisplatin (10 mg/kg i.p.) and immediately observed over at least a 2-hour period. Parameters recorded include: number of ferrets showing retches and vomits; latency to first retching; latency to first vomiting; number of retches; vomiting (number of vomits); number of emesis periods and mean duration of emesis periods. Retching is defined as a rhythmic respiratory movement against a closed glottis, while vomiting is defined as a forced expulsion of upper gastrointestinal contents.
Where apomorphine is used as the emetogen, amisulpride (or vehicle) was administered subcutaneously (s.c. 30 minutes before administration of apomorphine). Animals (6 per group) were treated with vehicle or amisulpride at 1, 10, or 100 μg/kg given sub-cutaneously. The observation period was 2 hours after apomorphine administration.

ferrets [2] = assay: Morphine-induced emesis in ferrets; format: in vivo, ferret
Procedure: as §1, §2
Where morphine is used as the emetogen, amisulpride (n=6 per group) or vehicle (n=6) is administered intravenously 5 minutes before the administration of morphine. The observation period is 2 hours after administration of the morphine.

ferrets [3] = assay: Cisplatin-induced emesis in ferrets; format: in vivo, ferret
Procedure: as §1, §2
Where cisplatin is used as the emetogen, amisulpride (n=6 per group) or vehicle (n=6) is administered intravenously at least 5 minutes before the administration of cisplatin. The observation period is up to 72 hours, which allows effects on early and late phase emesis to be observed.
More specifically, data are reported from an experiment in which the observation period was 3 hours following cisplatin challenge. Cisplatin induced the occurrence of retches and vomits in 7 and 5 of 9 animals tested respectively. The mean incidences were 79.8±22.2 retches, 3.0±1.1 vomits and 10.7±2.8 emetic periods. Retches and vomits occurred after 85 minutes 6 seconds±7 minutes 53 seconds and 86 minutes 39 seconds±10 minutes 28 seconds respectively amisulpride was given at 0.2, 0.6, 2 and 6 mg/kg. At 0.2 mg/kg the incidence of retches was 23.3±10.8 (a 71% decrease in mean value), of vomits 0.2±0.2 (a 93% decrease) and emesis periods 3.7±2.0 (a 65% decrease). At 0.6 mg/kg the incidence of retches was 62.5±59.0, vomits 1.3±1.1 and emesis periods 3.7±1.3. […] At 2.0 mg/kg the incidence of retches was 3.3±2.5, vomits 0.2±0.2 and emesis periods 0.5±0.3. […] At 6 mg/kg the incidences were 11.7±3.8 retches, 1.2±1.0 vomits and 3.7±1.3 emesis periods.
As indicated above, droperidol is a known agent for the treatment of PONV.

[4] = test system: patients undergoing routine surgery; assay: Phase IIa study of prophylaxis of post-operative nausea and vomiting; format: in vivo, human; settings: single dose at the time of the operation; 24-hour period post-operation
Procedure: A formulation of the invention was prepared, suitable for intravenous administration. It is a 2.5 mg/ml citrate-buffered solution (nominal pH 5.0) of amisulpride. The composition is given below.
The effects of amisulpride are studied in patients undergoing routine surgery in a randomised, controlled, open-label phase IIa study of efficacy of a single dose as prophylaxis of post-operative nausea and vomiting. The primary endpoint is the incidence of nausea and vomiting in the 24-hour period post-operation. The drug is administered at the time of the operation. The secondary endpoints are the nausea and vomiting rates and severity (measured separately) over 0-2 hours, 2-6 hours and 6-24 hours post-operation. In addition, the use of rescue medication and safety/adverse events, are recorded.

dog = settings: cited from earlier work
[5] = UKPAR Special Warnings and Precautions for Use; cited from earlier work
[6] = amisulpride 1 μg/kg s.c. 30 minutes before apomorphine 0.25 mg/kg s.c., 2 hour observation
[7] = amisulpride 3 mg/kg i.v. before morphine, 2 hour observation
[8] = amisulpride 6 mg/kg i.v. before morphine
[9] = amisulpride 6 mg/kg i.v. before morphine, 2 hour observation
[10] = amisulpride 12 mg/kg i.v. before morphine, 2 hour observation
[11] = amisulpride 0.2 mg/kg, 3 hours observation
[12] = amisulpride 0.6 mg/kg, 3 hours observation
[13] = amisulpride 2.0 mg/kg, 3 hours observation
[14] = amisulpride 6 mg/kg, 3 hours observation

CCN1CCCC1CNC(=O)c1cc(S(=O)(=O)CC)c(N)cc1OC (centres unmarked) [Amisulpride]
number of emesis periods (ferrets [1]; [6]): 1.5±0.6
number of retches (ferrets [1]; [6]): 6.0±2.2
number of vomits (ferrets [1]; [6]): 0±0
inhibition of apomorphine emesis (ferrets [1]; amisulpride 10 μg/kg s.c.): totally inhibited
inhibition of apomorphine emesis (ferrets [1]; amisulpride 100 μg/kg s.c.): totally inhibited
number of retches (ferrets [2]; amisulpride 3 mg/kg i.v. 5 minutes before morphine 0.4 mg/kg i.p., 2 hour observation): 28.7±7.1
incidence of vomits (ferrets [2]; [7]): abolished the incidence of vomits
number of emesis periods (ferrets [2]; [7]): 5.2±1.4
decrease in emesis periods vs control (ferrets [2]; [8]): 56%
decrease in retches vs control (ferrets [2]; [8]): ~50%
decrease in vomits vs control (ferrets [2]; [8]): 72%
number of emesis periods (ferrets [2]; [9]): 3.3±1.1
number of retches (ferrets [2]; [9]): 17.8±6.8
number of vomits (ferrets [2]; [9]): 0.5±0.3
number of emesis periods (ferrets [2]; [10]): 5.7±1.5
number of retches (ferrets [2]; [10]): 31.7±11.2
number of vomits (ferrets [2]; [10]): 0.8±0.4
effect on emetic effects induced by morphine vs vehicle control (ferrets [2]; i.v., 2 hour observation): reduces the emetic effects induced by morphine, in dose-dependent manner
incidence of retches (ferrets [3]; amisulpride 0.2 mg/kg i.v. before cisplatin 10 mg/kg i.p., 3 hours observation): 23.3±10.8
decrease in emesis periods vs control (ferrets [3]; [11]): 65%
decrease in mean retches vs control (ferrets [3]; [11]): 71%
decrease in vomits vs control (ferrets [3]; [11]): 93%
emesis periods (ferrets [3]; [11]): 3.7±2.0
incidence of vomits (ferrets [3]; [11]): 0.2±0.2
efficacy compared with droperidol (ferrets [3]; amisulpride 0.6 mg/kg (one animal excluded) and 2 mg/kg vs droperidol 3 mg/kg given 5 minutes before cisplatin): better than droperidol at 3 mg/kg; also recorded: more effective than droperidol at 3 mg/kg
emesis periods (ferrets [3]; [12]): 3.7±1.3
incidence of vomits (ferrets [3]; [12]): 1.3±1.1
incidence of retches (ferrets [3]; amisulpride 0.6 mg/kg, 3 hours observation, one animal had an early, exaggerated response): 62.5±59.0
emesis periods (ferrets [3]; [13]): 0.5±0.3
incidence of retches (ferrets [3]; [13]): 3.3±2.5
incidence of vomits (ferrets [3]; [13]): 0.2±0.2
emesis periods (ferrets [3]; [14]): 3.7±1.3
incidence of retches (ferrets [3]; [14]): 11.7±3.8
incidence of vomits (ferrets [3]; [14]): 1.2±1.0
effect on emetic effects of cisplatin vs vehicle control (ferrets [3]; i.v., 72 hour period, early and late stages): reduces the emetic effects of cisplatin, in dose-dependent manner
effect on nausea, vomiting and retching associated with PONV [4]: demonstrate the effect of amisulpride against the nausea as well as the vomiting and retching associated with PONV
effect on apomorphine-induced vomiting (dog): inhibit apomorphine-induced vomiting in the dog
effect on QT interval [5]: induces a dose dependent prolongation of the QT interval

— patent US12194022B2, “Use of amisulpride as an anti-emetic” (ACACIA PHARMA LIMITED, priority 2010, dated 2025)
